Source: patent US9370494B2, “Methods for treating hepatocellular carcinoma” (ABRAXIS BIOSCIENCE, LLC, priority 2010, dated 2016)

Assays:
[1] = system: SK-HEP1/Luc+ xenograft; test: SK-HEP1/Luc+ xenograft model; details: 35 mmol/kg every two days for five times
Method: SK-HEP1 luciferase stable clone was prepared by transfecting SK-HEP1 cells with firefly luciferase expression vector and selected with 500 ug/ml Geneticin (Gibco-BRL) for 4 weeks. Individual colonies were screened for bioluminescence activity using the Xenogen IVIS® imager (Alameda, Calif., USA). Clones with stable luminescence expression were used for in-vivo studies.
Male BALB/c nude mice at 6-8 weeks old with an average body weight of about 20 g were anesthetized by intraperitoneal injection of ketamine hydrochloride (120 mg/kg) (Fort Dodge Animal Health, Fort Dodge, Iowa, USA) plus xylazine (6 mg/kg) (Phoenix Scientific, Inc., St. Joseph, Mo., USA). Anesthetized animals then received 5×10^6 SK-HEP1/Luc+ cells suspended in 200 μl serum free medium by subcutaneous injection below the dorsal flank. Drug treatments started on day 14 after tumor cells inoculation. […] All drugs were given every two days for five times, at a dose of 35 mmol/kg. See Desai N. et al., Clinical Cancer Research, 12:1317-24 (2006). Tumor growth was monitored twice weekly by in-vivo bioluminescent imaging and by external caliper measurements using the formula of [(Length×Width^2)/2] for 24 days. For in-vivo bioluminescent imaging, 150 mg/kg D-luciferin were given by intraperitoneal injection and ten minutes after luciferin injection, mice were anesthetized by isoflurane and tumor cell viability was measured by the Xenogen IVIS® imager.

[2] = system: HCC cells; details: US Patent App. No. 2008/0045584; cited from earlier work
[3] = system: HCC patients; details: British Journal of Cancer 1998; cited from earlier work
[4] = system: Hep3B cells; test: MTT cell viability assay after siRNA transfection (STMN1 knockdown); format: cell-based, human
Method: Cell viability was measured by MTT Assay. Cells grown in 96-well plates at density of 3000 cells per well were treated with drugs or siRNA transfection as indicated. […] The formazan formed was measured at 570 nm and cell viability is expressed as a percentage of maximum absorbance from 5 replicates in 3 independent experiments. The concentration of drug that inhibited cell survival by 50% (IC50) was determined from cell survival curves.
siRNA sequences included STMN1 siGENOME SMARTpool (si-STMN1) and siCONTROL Non-Targeting siRNA (si-mock). All siRNAs were chemically synthesized as double stranded RNA (Dharmacon) and introduced into cell lines by Lipofectamine 2000 (Invitrogen, Carlsbad, Calif., USA) according to manufacturer's instructions. Briefly, cells were incubated with 100 nM siRNA (si-STMN1 or si-mock). Six hours after transfection, medium was replaced by fresh growing medium. The expression of STMN1 was monitored by Western blot, which indicated a repressed expression for at least 3 days.

[5] = system: Hep3B, SK-HEP1 and HKCl-9 HCC cell lines; test: MTT cell viability assay in HCC cell lines; format: cell-based; details: Homo sapiens; 48 h; range over the 3 cell lines Hep3B, SK-HEP1, HKCl-9
Method: Human liver cancer cell lines Hep3B and SK-HEP1 acquired from ATCC were cultured in Dulbecco's modified Eagle medium with Glutamax-1 (Gibco-BRL, Grand Island, N.Y., USA) supplemented with 10% fetal bovine serum. HKCl-9 (as described in Chan K.Y. Y. et al., Modern Pathology 19:1546-54 (2006)) was cultured in AIMV medium (Gibco-BRL) supplemented with 1% L-Glutamine and 10% fetal bovine serum. All cells were cultured under a humidified atmosphere of 5% CO2 at 37° C.

[6] = system: hepatitis B-related HCC patients; details: advanced stage patients; placebo 4.2 months; cited from earlier work

## CC(=O)O[C@@]12CO[C@@H]1C[C@H](O)[C@@]1(C)C(=O)[C@H](O)C3=C(C)[C@@H](OC(=O)[C@H](O)[C@@H](NC(=O)OC(C)(C)C)c4ccccc4)C[C@@](O)([C@@H](OC(=O)c4ccccc4)[C@H]21)C3(C)C [Docetaxel]
[1]
  Toxicity (weight loss, deaths): particularly severe
[2]
  Activity against HCC cells relative to paclitaxel: more active against HCC cells than paclitaxel

## CC(=O)O[C@H]1C(=O)[C@@]2(C)[C@H]([C@H](OC(=O)c3ccccc3)[C@]3(O)C[C@H](OC(=O)[C@H](O)[C@@H](NC(=O)c4ccccc4)c4ccccc4)C(C)=C1C3(C)C)[C@]1(OC(C)=O)CO[C@@H]1C[C@@H]2O [Paclitaxel]
[1]
  Toxicity (weight loss, deaths): particularly severe
[3]
  Anti-cancer effect in HCC patients: no significant anti-cancer effect

## COc1cccc2c1C(=O)c1c(O)c3c(c(O)c1C2=O)C[C@@](O)(C(=O)CO)C[C@@H]3O[C@H]1C[C@H](N)[C@H](O)[C@H](C)O1 [Doxorubicin]
[1]
  Toxicity (weight loss, deaths): particularly severe
[4]
  Fold more sensitive after STMN1 knockdown (si-STMN1 vs si-mock): no effect
[5]
  IC50: 106 to 456 nM

## CNC(=O)c1cc(Oc2ccc(NC(=O)Nc3ccc(Cl)c(C(F)(F)F)c3)cc2)ccn1 [Sorafenib]
[6]
  Median overall survival: 6.5 months
